Data: US8334291B2, “Aliphatically substituted pyrazolopyridines, and the use thereof” (Bayer Intellectual Property GmbH, priority 2008, dated 2012)

Tested on: rabbit aorta rings contracted with phenylephrine
Test: Vasorelaxant effect in vitro
Set-up: species or system Rabbits
Settings: Oryctolagus cuniculus; concentration reducing height of phenylephrine-induced contraction of rabbit aorta rings by 50%; 0.1% DMSO
Method: Rabbits are stunned by a blow to the neck and exsanguinated. The aorta is removed, freed from adhering tissue and divided into rings of a width of 1.5 mm. The rings are placed individually under an initial tension in 5 ml organ baths with Krebs-Henseleit solution which is at 37° C., is gassed with carbogen and has the following composition (in each case mM): NaCl: 119; KCl: 4.8; CaCl2×2H2O: 1; MgSO4×7H2O: 1.4; KH2PO4: 1.2; NaHCO3: 25; glucose: 10. The force of contraction is detected with Statham UC2 cells, amplified and digitized via A/D converters (DAS-1802 HC, Keithley Instruments, Munich) and recorded in parallel on chart recorders. Contractions are induced by cumulatively adding increasing concentrations of phenylephrine to the bath. After several control cycles, the substance to be investigated is added in each further run in increasing dosage in each case, and the height of the contraction achieved is compared with the height of the contraction reached in the last preceding one. The concentration necessary to reduce the height of the control value by 50% is calculated from this (IC50 value). The standard application volume is 5 μl, the proportion of DMSO in the bath solution corresponds to 0.1%.

| IC50 | Structure (SMILES) |
| --- | --- |
| 1000 nM | Nc1nc(-c2nn(CC3CCCCCC3)c3ncccc23)ncc1-c1ccncc1 [Example 5, 2-[1-(Cycloheptylmethyl)-1H-pyrazolo[3,4-b]pyridin-3-yl]-5-(pyridin-4-yl)pyrimidine-4-amine] |
| 870 nM | COC(=O)Nc1c(N)nc(-c2nn(CC3CCCCC3)c3ncccc23)nc1N [Example 1, Methyl[4,6-diamino-2-(1-cyclohexylmethyl-1H-pyrazolo[3,4-b]pyridin-3-yl)pyrimidin-5-yl]carbamate] |
